The target in test [1] is T1, human SLC6A19 and TMEM27 (Homo sapiens, UniProt Q695T7).
T1 construct: expressed in transfected cells
T1 sequence (Q695T7 1-634): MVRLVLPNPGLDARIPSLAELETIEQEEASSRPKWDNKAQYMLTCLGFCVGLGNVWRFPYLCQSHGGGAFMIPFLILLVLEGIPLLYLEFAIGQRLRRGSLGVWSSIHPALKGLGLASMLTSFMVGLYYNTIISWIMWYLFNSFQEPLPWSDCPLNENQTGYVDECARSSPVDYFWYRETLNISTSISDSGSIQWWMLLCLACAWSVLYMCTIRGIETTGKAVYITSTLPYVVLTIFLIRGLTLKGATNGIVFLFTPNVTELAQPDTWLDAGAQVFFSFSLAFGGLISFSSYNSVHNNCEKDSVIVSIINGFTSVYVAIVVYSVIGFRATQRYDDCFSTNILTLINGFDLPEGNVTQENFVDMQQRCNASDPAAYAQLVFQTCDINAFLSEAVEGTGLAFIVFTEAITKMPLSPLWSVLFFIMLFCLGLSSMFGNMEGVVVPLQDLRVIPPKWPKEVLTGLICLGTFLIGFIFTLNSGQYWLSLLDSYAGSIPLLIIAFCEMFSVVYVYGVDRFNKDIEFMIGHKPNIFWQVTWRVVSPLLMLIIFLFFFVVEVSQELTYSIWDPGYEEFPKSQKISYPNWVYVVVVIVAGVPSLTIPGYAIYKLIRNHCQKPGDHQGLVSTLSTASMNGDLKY
T1 sequence (Q9HBJ8 15-222 partner): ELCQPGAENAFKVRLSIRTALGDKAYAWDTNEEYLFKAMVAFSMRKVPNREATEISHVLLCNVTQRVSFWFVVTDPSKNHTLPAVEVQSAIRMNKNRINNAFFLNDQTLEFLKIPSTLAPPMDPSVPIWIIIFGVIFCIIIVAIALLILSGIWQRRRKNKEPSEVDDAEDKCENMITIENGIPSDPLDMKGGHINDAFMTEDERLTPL
The experiment in a line: Radiolabelled (3H) leucine uptake in CHO cells with doxycycline-inducible expression of human SLC6A19 and TMEM27 (Example B-1). The class given is cell-based. The conditions noted are these: CHO cells with doxycycline-inducible expression of human SLC6A19 and TMEM27, read-out: SLC6A19_Radioligand Uptake Assay IC50. A digest of the protocol:
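CHO cells were induced with doxycycline for 18 h at 37 °C, washed in HBSS, then exposed to compounds for 1 h: 8-point, 3-fold dilutions in duplicate, 0.5% DMSO final. Uptake measured by scintillation counting after 2 h shaking. Activity normalized with positive control as 0% and DMSO as 100%.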

For test [2], the target named is T1, human SLC6A19 and TMEM27. Kind of test: 13C6,15N-isoleucine uptake in CHO cells with doxycycline-inducible expression of human SLC6A19 and TMEM27, RapidFire mass spectrometry (Example B-2). The conditions noted are these: read-out: SLC6A19_RapidFire Uptake Assay IC50. It is filed as cell-based. A digest of the protocol:
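CHO cells induced overnight with doxycycline to express human SLC6A19 plus TMEM27; 20 min preincubation with compound (10-point 2-fold series, duplicate) at 37 °C in HEPES buffer pH 7.2, then 20 min with 13C6,15N-isoleucine. Intracellular label quantified by RapidFire MS against 13C-leucine standard; positive control defined 100% inhibition.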

pIC50: −log10 of the molar value.

The pIC50 is the IC50 on a negative log10 scale, so that one unit is a factor of ten. Regarding `CC1(C(=O)NCc2cc3cc(Cl)c(OCc4cc(C(F)(F)F)on4)cc3[nH]2)CC1` [Compound 352, N-((5-chloro-6-((5-(trifluoromethyl)isoxazol-3-yl)methoxy)-1H-indol-2-yl)methyl)-1-methylcyclopropane-1-carboxamide], the pIC50 in test [1] is 7.17; in test [2], 6.33.
Consider `CC1CN(C(=O)NCc2cc3cc(F)c(OCc4cscn4)cc3[nH]2)C1` [Compound 357, N-((5-fluoro-6-(thiazol-4-ylmethoxy)-1H-indol-2-yl)methyl)-3-methylazetidine-1-carboxamide], for which the pIC50 in test [1] was 6.38; in test [2], 6.36.
For `CN(C(=O)NCc1cc2cc(Cl)c(OCc3ccon3)cc2[nH]1)C1CC1` [Compound 379, 3-((5-chloro-6-(isoxazol-3-ylmethoxy)-1H-indol-2-yl)methyl)-1-cyclopropyl-1-methylurea], the pIC50 in test [1] was 6.42; in test [2], 6.62.
Turning to `CC1CN(C(=O)NCc2cc3cc(F)c(OCc4ccon4)cc3[nH]2)C1` [Compound 389, N-((5-fluoro-6-(isoxazol-3-ylmethoxy)-1H-indol-2-yl)methyl)-3-methylazetidine-1-carboxamide], the pIC50 is 6.45 in test [1] and 6.31 in test [2].
As to `CC1CN(C(=O)NCc2cc3cc(Cl)c(OCc4ccon4)cc3[nH]2)C1` [Compound 390, N-((5-chloro-6-(isoxazol-3-ylmethoxy)-1H-indol-2-yl)methyl)-3-methylazetidine-1-carboxamide], the values for the pIC50 in test [1] and in test [2] were 6.47 and 6.40, respectively.
As to `CC1(C(=O)NCc2cc3cc(Cl)c(OCc4cc5ccccn5n4)cc3[nH]2)CC1` [Compound 392, N-((5-chloro-6-(pyrazolo[1,5-a]pyridin-2-ylmethoxy)-1H-indol-2-yl)methyl)-1-methylcyclopropane-1-carboxamide], the pIC50 in test [1] was 5.55; in test [2], 5.79.
On to `CC1(C(=O)NCc2cc3cc(Cl)c(OCCC4CC(F)(F)C4)cc3[nH]2)CC1` [Compound 393, N-((5-chloro-6-(2-(3,3-difluorocyclobutyl)ethoxy)-1H-indol-2-yl)methyl)-1-methylcyclopropane-1-carboxamide], for which the figures for the negative logarithm of the IC50 (pIC50) in test [1] and in test [2] were 5.84 and 6.11, respectively.
On to `O=C(NCc1cc2cc(F)c(OCc3ccno3)cc2[nH]1)N1CCC1` [Compound 401, N-((5-fluoro-6-(isoxazol-5-ylmethoxy)-1H-indol-2-yl)methyl)azetidine-1-carboxamide], for which the values for the pIC50 in test [1] and in test [2] were 6.47 and 6.27, respectively.
The matching figures for `O=C(NCc1cc2cc(Cl)c(OCc3cccc(F)n3)cc2[nH]1)N1CCC1` [Compound 402, N-((5-chloro-6-((6-fluoropyridin-2-yl)methoxy)-1H-indol-2-yl)methyl)azetidine-1-carboxamide]: 6.54 and 6.76.
As for `O=C(NCc1cc2cc(Cl)c(OCc3cocn3)cc2[nH]1)N1CCC1` [Compound 403, N-((5-chloro-6-(oxazol-4-ylmethoxy)-1H-indol-2-yl)methyl)azetidine-1-carboxamide], the pIC50 is 6.39 in test [1] and 6.28 in test [2].
Take `Cc1cc(COc2cc3[nH]c(CNC(=O)N4CCC4)cc3cc2Cl)on1` [Compound 404, N-((5-chloro-6-((3-methylisoxazol-5-yl)methoxy)-1H-indol-2-yl)methyl)azetidine-1-carboxamide]: the pIC50 is 6.57 in test [1] and 6.83 in test [2].
On to `Cn1ncc(COc2cc3[nH]c(CNC(=O)N4CCC4)cc3cc2Cl)n1` [Compound 405, N-((5-chloro-6-((2-methyl-2H-1,2,3-triazol-4-yl)methoxy)-1H-indol-2-yl)methyl)azetidine-1-carboxamide], for which the pIC50 in test [1] is 6.52; in test [2], 6.44.
Turning to `Cn1ncc(COc2cc3[nH]c(CNC(=O)N4CCCC4)cc3cc2Cl)n1` [Compound 406, N-((5-chloro-6-((2-methyl-2H-1,2,3-triazol-4-yl)methoxy)-1H-indol-2-yl)methyl)pyrrolidine-1-carboxamide], the results for the pIC50 in test [1] and in test [2] were 6.46 and 6.76, respectively.
As for `O=C(NCc1cc2cc(Cl)c(NCc3ccon3)cc2[nH]1)N1CCC1` [Compound 407, N-((5-chloro-6-((isoxazol-3-ylmethyl)amino)-1H-indol-2-yl)methyl)azetidine-1-carboxamide], the results for the pIC50 in test [1] and in test [2] were 6.21 and 6.23, respectively.
Regarding `Cc1nc(COc2cc3[nH]c(CNC(=O)N4CCC4)cc3cc2Cl)co1` [Compound 408, N-((5-chloro-6-((2-methyloxazol-4-yl)methoxy)-1H-indol-2-yl)methyl)azetidine-1-carboxamide], the pIC50 in test [1] was 6.32; in test [2], 6.30.
With `Cn1ncc(COc2cc3[nH]c(CNC(=O)N4CCC4)cc3cc2F)n1` [Compound 409, N-((5-fluoro-6-((2-methyl-2H-1,2,3-triazol-4-yl)methoxy)-1H-indol-2-yl)methyl)azetidine-1-carboxamide], the pIC50 in test [1] is 5.93; in test [2], 5.64.
Regarding `Cn1ncc(COc2cc3[nH]c(CNC(=O)N4CCCC4)cc3cc2F)n1` [Compound 410, N-((5-fluoro-6-((2-methyl-2H-1,2,3-triazol-4-yl)methoxy)-1H-indol-2-yl)methyl)pyrrolidine-1-carboxamide], the figures for the negative-log IC50 (pIC50) in test [1] and in test [2] were 6.41 and 6.24, respectively.
The matching figures for `Cc1nc(COc2cc3[nH]c(CNC(=O)N4CCCC4)cc3cc2Cl)co1` [Compound 411, N-((5-chloro-6-((2-methyloxazol-4-yl)methoxy)-1H-indol-2-yl)methyl)pyrrolidine-1-carboxamide]: 6.50 and 6.66.
In the case of `O=C(NCc1cc2cc(Cl)c(CCc3ccon3)cc2[nH]1)N1CCCC1` [Compound 412, N-((5-chloro-6-(2-(isoxazol-3-yl)ethyl)-1H-indol-2-yl)methyl)pyrrolidine-1-carboxamide], the pIC50 in test [1] was 6.54; in test [2], 6.81.
As for `O=C(NCc1cc2cc(Cl)c(NCc3ccon3)cc2[nH]1)N1CCCC1` [Compound 413, N-((5-chloro-6-((isoxazol-3-ylmethyl)amino)-1H-indol-2-yl)methyl)pyrrolidine-1-carboxamide], the pIC50 in test [1] was 6.56; in test [2] it was 6.62.
Take `O=C(NCc1cc2cc(Cl)c(NCc3cscn3)cc2[nH]1)N1CCCC1` [Compound 414, N-((5-chloro-6-((thiazol-4-ylmethyl)amino)-1H-indol-2-yl)methyl)pyrrolidine-1-carboxamide]: the results for the pIC50 in test [1] and in test [2] were 6.47 and 6.55, respectively.
Consider `O=C(NCc1cc2cc(OC(F)(F)F)c(OCc3cscn3)cc2[nH]1)N1CCCC1` [Compound 415, N-((6-(thiazol-4-ylmethoxy)-5-(trifluoromethoxy)-1H-indol-2-yl)methyl)pyrrolidine-1-carboxamide], for which the pIC50 in test [1] is 6.42; in test [2], 7.03.
For `O=C(NCc1cc2cc(OC(F)(F)F)c(CCc3cscn3)cc2[nH]1)N1CCCC1` [Compound 419, N-((6-(2-(thiazol-4-yl)ethyl)-5-(trifluoromethoxy)-1H-indol-2-yl)methyl)pyrrolidine-1-carboxamide] the same measures were 6.36 and 6.80.
For `O=C(NCc1cc2cc(OC(F)(F)F)c(OCc3cscn3)cc2[nH]1)N1CCC1` [Compound 421, N-((6-(thiazol-4-ylmethoxy)-5-(trifluoromethoxy)-1H-indol-2-yl)methyl)azetidine-1-carboxamide] the same measures were 6.44 and 6.88.
For `CCc1c(CNC(=O)N2CCC2)[nH]c2cc(OCc3cscn3)c(Cl)cc12` [Compound 424, N-((5-chloro-3-ethyl-6-(thiazol-4-ylmethoxy)-1H-indol-2-yl)methyl)azetidine-1-carboxamide] the same measures were 5.90 and 6.31.
For `O=C(NCc1cc2cc(Cl)c(OCc3cccc(F)n3)cc2[nH]1)N1CCCC1` [Compound 425, N-((5-chloro-6-((6-fluoropyridin-2-yl)methoxy)-1H-indol-2-yl)methyl)pyrrolidine-1-carboxamide], the figures for the negative logarithm of the IC50 (pIC50) in test [1] and in test [2] were 6.50 and 6.94, respectively.

The values are drawn from US20240199546A1, “INHIBITORS OF SOLUTE CARRIER FAMILY 6A MEMBER 19 (SLC6A19) AND METHODS OF USE THEREOF” (Maze Therapeutics, Inc., priority 2022, published 2024).
